Source: the supplement of paper PMC10307832

Tests used:
Assay in all cases: relative viability (nuclei count vs DMSO), 5 days (fraction); higher = more cells survive
IMD-0354 + Lapatinib = compound: O=C(Nc1cc(C(F)(F)F)cc(C(F)(F)F)c1)c1cc(Cl)ccc1O [IMD-0354] + CS(=O)(=O)CCNCc1ccc(-c2ccc3ncnc(Nc4ccc(OCc5cccc(F)c5)c(Cl)c4)c3c2)o1 [Lapatinib] (partner 2 µM)
In short: (§1)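 For relative viability, nuclei counts in treated wells were divided by those in vehicle wells. Lung cancer cell lines had been pin-tool dosed in 1536-well plates the day after seeding and cultured for 5 days, then fixed and stained in one step (final 0.05% Triton X-100, 1% formaldehyde, 1 ug/ml Hoechst) and imaged at 4×. Doses were one drug alone or a fixed anchor-drug dose plus five library-drug doses (not always all listed) in √10 steps, and values are duplicate-plate medians.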

CX-5461 + Vorinostat = compound: Cc1cnc(CNC(=O)c2c(=O)c3ccc(N4CCCN(C)CC4)nc3n3c2sc2ccccc23)cn1 [CX-5461] + O=C(CCCCCCC(=O)Nc1ccccc1)NO [Vorinostat] (partner 1 µM)
In short: as §1

CX-5461 + Decitabine = compound: Cc1cnc(CNC(=O)c2c(=O)c3ccc(N4CCCN(C)CC4)nc3n3c2sc2ccccc23)cn1 [CX-5461] + Nc1ncn([C@H]2C[C@H](O)[C@@H](CO)O2)c(=O)n1 [Decitabine] (partner 2 µM)
In short: as §1

IMD-0354 + Alpelisib = compound: O=C(Nc1cc(C(F)(F)F)cc(C(F)(F)F)c1)c1cc(Cl)ccc1O [IMD-0354] + Cc1nc(NC(=O)N2CCC[C@H]2C(N)=O)sc1-c1ccnc(C(C)(C)C(F)(F)F)c1 [Alpelisib] (partner 2 µM)
In short: as §1

Cell Line	relative viability (IMD-0354 + Lapatinib; first compound 0.04 µM)	relative viability (IMD-0354 + Lapatinib; first compound 0.1265 µM)	relative viability (IMD-0354 + Lapatinib; first compound 0.4 µM)	relative viability (IMD-0354 + Lapatinib; first compound 1.265 µM)	relative viability (IMD-0354 + Lapatinib; first compound 4 µM)	relative viability (CX-5461 + Vorinostat; first compound 0.01 µM)	relative viability (CX-5461 + Vorinostat; first compound 0.03162 µM)	relative viability (CX-5461 + Vorinostat; first compound 0.1 µM)	relative viability (CX-5461 + Vorinostat; first compound 0.3162 µM)	relative viability (CX-5461 + Vorinostat; first compound 1 µM)	relative viability (CX-5461 + Decitabine; first compound 0.01 µM)	relative viability (CX-5461 + Decitabine; first compound 0.03162 µM)	relative viability (CX-5461 + Decitabine; first compound 0.1 µM)	relative viability (CX-5461 + Decitabine; first compound 0.3162 µM)	relative viability (CX-5461 + Decitabine; first compound 1 µM)	relative viability (IMD-0354 + Alpelisib; first compound 0.04 µM)	relative viability (IMD-0354 + Alpelisib; first compound 0.1265 µM)	relative viability (IMD-0354 + Alpelisib; first compound 0.4 µM)	relative viability (IMD-0354 + Alpelisib; first compound 1.265 µM)	relative viability (IMD-0354 + Alpelisib; first compound 4 µM)
201T	1.07	1.08	0.827	1.04	0.333	1.07	1.04	1.02	0.559	0.976	0.861	0.849	0.885	0.814	0.834	1.02	1.08	0.683	1.1	0.351
A549	1.19	1.04	0.245	0.101	0.105	–	–	–	–	–	0.299	0.387	0.249	0.269	0.0566	0.776	0.695	0.509	0.0677	0.0557
A-427	1.12	1.02	0.678	0.618	0.105	0.879	0.884	0.872	0.805	0.548	0.593	0.603	0.52	0.269	0.481	1.04	1.13	0.815	0.69	0.104
ABC-1	1.31	1.15	–	1.17	0.612	1.2	–	1.02	0.442	0.394	0.971	–	1.38	0.429	0.96	1.15	1.1	0.887	0.375	0.252
BEN	0.601	0.878	0.373	0.266	0.229	0.596	0.588	0.514	0.536	0.608	0.757	0.706	0.711	0.652	0.545	1.11	0.915	0.498	0.442	0.245
CAL-12T	0.611	0.665	0.533	0.4	0.259	0.833	0.951	0.74	0.577	0.337	–	–	–	–	–	1.49	1.31	0.596	0.267	0.173
COR-L23	1.09	0.831	0.439	0.117	0.172	0.612	0.436	0.451	0.389	0.218	0.424	0.424	0.371	0.489	0.219	0.728	0.776	0.427	0.136	0.164
COR-L 105	0.332	0.329	0.339	0.243	0.253	0.929	0.872	0.728	0.71	0.599	0.668	0.612	0.609	0.512	0.436	1.06	0.76	0.902	0.604	0.287
Calu-6	0.983	1.1	0.6	0.223	0.2	–	–	–	–	–	–	–	–	–	–	0.925	0.909	0.672	0.101	0.0892
ChaGo-K-1	–	–	–	–	–	0.786	0.81	0.699	0.262	0.513	0.554	0.485	0.547	0.543	0.431	–	–	–	–	–
EBC-1	0.163	0.202	0.251	0.168	0.249	–	–	–	–	–	–	–	–	–	–	0.882	0.788	0.559	0.174	0.227
EKVX	0.406	0.203	–	0.128	0.134	0.738	0.815	0.758	0.726	0.784	0.286	0.418	0.395	–	0.39	0.931	0.992	–	0.73	0.179
EMC-BAC-2	0.965	0.803	0.555	0.408	0.229	0.435	0.138	0.269	0.203	0.201	0.97	0.994	0.709	0.655	0.473	0.796	0.766	0.448	0.611	0.25
EPLC-272H	1.32	0.944	0.618	0.716	0.205	0.47	0.362	0.362	0.48	0.458	0.358	0.425	0.396	–	0.297	1.04	0.893	0.648	0.842	0.374
H3255	0.189	0.246	0.276	0.17	0.207	0.767	0.771	0.9	–	0.734	0.634	0.611	0.73	–	0.624	0.723	0.793	0.46	0.364	0.241
HARA	0.792	0.752	0.432	0.11	0.198	0.516	0.568	0.485	–	0.476	0.595	0.429	0.559	0.587	0.526	0.942	0.724	0.503	0.141	0.169
HCC-15	0.837	0.824	0.383	0.241	0.127	0.926	0.882	0.818	0.834	0.768	0.684	0.654	0.605	0.69	0.354	0.861	0.853	0.466	0.272	0.0938
HCC-44	0.976	1.08	0.408	0.23	0.206	1.17	1.16	1.03	1.13	1.03	0.946	1.02	0.887	0.939	0.837	0.857	0.728	0.379	0.185	0.134
HCC-78	1.16	0.889	0.729	0.0878	0.234	0.405	0.477	0.459	0.402	0.42	0.678	0.678	0.595	0.694	0.565	0.366	0.345	0.121	0.231	0.192
